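Following 48 hours of exposure in 96-well plates, responses at five concentrations were used to interpolate endpoints linearly. Here, GI50 denotes the concentration required for 50% inhibition of growth. TGI: total growth inhibition.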

Holding throughout (assay): NCI-60 cell line screen, 48 h
For assay [1], the system named is KM12 colon.
For assay [2], the system named is TK-10 renal.
Assay [3] has as its system U251 CNS.
Assay [4] concerns SR leukemia.
The subject of assay [5] is SN12C renal.
For assay [6], the system named is HOP-92 NSCLC.
Assay [7] deals with SK-MEL-28 melanoma.
Assay [8] relates to HCT-116 colon.
The test system of assay [9] is UACC-62 melanoma.
Assay [10] has as its system PC-3 prostate.

With `CC(=O)OCc1nnn2c1C(OC(C)=O)CC2` (stereo unspecified), the TGI in [1], in assay [2], in assay [3], in assay [4], in assay [5] and in [6] was greater than 100 µM in each case. Moreover, the TGI in assay [7], in [8] and in [9] was greater than 100 µM throughout.

For the molecule `O=C(O)C1=Cc2cccc3cccc(c23)C1=O`, the TGI in assay [1], in assay [2], in assay [3], in assay [4], in [5] and in [7] was greater than 100 µM throughout. In addition, the TGI in [8] and in [9] was greater than 100 µM in each case.

For `Cc1ccc(C2=NN(c3ccc(S(=O)(=O)NC(=O)NCc4ccccc4)cc3)C(c3ccc(N(C)C)cc3)C2)c(C)c1` (stereo unspecified), the GI50 is 3.33 µM in [10]; 3.49 µM in [1]; 6.46 µM in assay [2]; 3.53 µM in assay [3]; 3.35 µM in [5]; 2.64 µM in assay [6]. The GI50 is 2.36 µM in assay [7], 4 µM in assay [8] and 2.5 µM in assay [9]. Besides, the TGI in assay [10] is 42 µM; in assay [1] it was 15.4 µM; in assay [2] it was 35.9 µM; in assay [3], 16 µM; in [5], 61.5 µM; in [6] it was 8.58 µM. The TGI in [7] stood at 6.89 µM; in [8], 14.9 µM; in assay [9] it was 6.8 µM.

In the case of `COC(=O)C1c2cc3c(c(O)c2CCC1(C)O)C(=O)c1c(O)cc2c(c1C3=O)OC1OC2(C)C(O)C(N(C)C)C1O` (stereo unspecified), the TGI in assay [10] came to 1.79 µM; in [1] it was 1.52 µM; in [2], 1.66 µM; in [3], 1.71 µM; in assay [5] it was 3.84 µM; in assay [7] it was 15.7 µM. The TGI in assay [8] came out at 24.2 µM; in assay [9] it was 1.91 µM.

Turning to `CCCCCc1cc(/C=C2/N=C(c3ccc[nH]3)C=C2OC)[nH]c1C`, the TGI in [10] came out at 1.06 µM; in assay [1], 0.364 µM; in assay [2] it was 1.29 µM; in assay [3], 0.153 µM; in assay [5], 0.844 µM; in assay [6], 0.0213 µM. For the same molecule, the TGI in assay [7] is 0.805 µM; in [8], less than 0.0387 µM; in assay [9] it was 0.03 µM.

`COc1ccc(C2=C(c3ccccc3)C(=O)N3CCCC3C2)cc1` (stereo unspecified): the GI50 in [10] is 1.48 µM; in [1], 3.01 µM; in assay [2], 12.9 µM; in [3] it was 0.336 µM; in [5] it was 13 µM; in assay [6], greater than 100 µM. Moreover, the GI50 in assay [7] was greater than 62.5 µM; in [8] it was 0.0817 µM; in [9] it was 1.92 µM. Besides, the TGI in assay [10], in assay [1], in assay [2], in assay [3], in assay [5] and in [6] was greater than 100 µM in each case. In addition, the TGI in [7], in assay [8] and in assay [9] was greater than 100 µM in each case.

Consider `NC(=O)c1c[nH]c2ncnc(N)c12`, for which the GI50 is 30.3 µM in assay [10]; 24.8 µM in [1]; 19.6 µM in [2]; greater than 100 µM in assay [3]; 71.6 µM in assay [5]; 58.8 µM in [7]. In addition, the results for the GI50 in assay [8] and in assay [9] were 45.5 µM and 95.6 µM, respectively. Also, the TGI in assay [10], in assay [1], in assay [2], in [3], in [5] and in assay [7] was greater than 100 µM throughout. The TGI in assay [8] and in [9] was greater than 100 µM each time.

For the molecule `CCOC(=O)C1=C(C)NC2SC(=O)/C(=C\c3cccc(Cl)c3)N2C1c1ccccc1` (stereo unspecified), the GI50 in assay [10], in assay [1], in [2], in [3], in assay [5] and in [6] was greater than 100 µM in each case. The GI50 in assay [7], in [8] and in [9] was greater than 100 µM throughout. The TGI in [10], in assay [1], in assay [2], in assay [3], in assay [5] and in assay [6] was greater than 100 µM in each case. The TGI in [7], in [8] and in assay [9] was greater than 100 µM each time.

In the case of `CCOC(=O)CCc1c(C)c2c(OC)cc(OC)cc2oc1=O`, the TGI in assay [1], in assay [2], in assay [3], in assay [5], in assay [6] and in assay [7] was greater than 100 µM each time. In assay [8], this molecule showed a TGI greater than 100 µM.

On to `CC[O-].CC[O-].O=C1C=C([O-])C(=O)c2ccccc21.O=C1C=C([O-])C(=O)c2ccccc21.[Ti+4]`, for which the GI50 in assay [1] was greater than 90.8 µM; in assay [2], greater than 67.7 µM; in assay [3] it was greater than 100 µM; in [5], greater than 100 µM; in assay [6], greater than 100 µM; in [7] it was greater than 100 µM. Moreover, the GI50 was 43.2 µM in [8] and 21.5 µM in assay [9]. For the same molecule, the TGI in assay [1], in assay [2], in [3], in [5], in [6] and in assay [7] was greater than 100 µM throughout. The TGI in assay [8] and in assay [9] was greater than 100 µM each time.

With `Cc1[nH]c(=O)n2c(C)nnc2c1C(=O)O`, the TGI in assay [1], in assay [2], in assay [3], in assay [4], in [5] and in assay [6] was greater than 100 µM each time. Also, the TGI in [7], in assay [8] and in [9] was greater than 100 µM each time.

These data come from PubChem BioAssay (NCI).
